In patent publication US20230278972A1, “SUBSTITUTED HALOALKYL SULFONANILIDE HERBICIDES” (FMC Corporation, priority 2020, published 2023):

Columns and labels:
Type in all cases: in vivo
kochia (Bassia scoparia) = assay: Test A1 postemergence, kochia; details: for Plant response rating, Kochia: Postemergence
Procedure, shortened: (§1)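 Herbicidal response was scored on plants treated either preemergence, by directed spray onto soil of a loam–sand blend after sowing, or postemergence on potted plants at the one- to two-leaf stage, 2–10 cm high. Test chemicals were carried in a non-phytotoxic solvent mix with surfactant.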

[1] = system: Pigweed, Palmer (palmer amaranth, palmer pigweed, Amaranthus palmeri); assay: Test A1 postemergence, Pigweed, Palmer; details: for Plant response rating, Pigweed, Palmer: Postemergence
Procedure, shortened: (§2)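 Both timings started from seed in a loam-sand blend. Preemergence pots got a directed soil application immediately; postemergence pots were sprayed when seedlings had one or two leaves and stood 2–10 cm. Each compound was prepared in a non-phytotoxic solvent plus surfactant.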

[2] = system: goosegrass (Eleusine indica); assay: Test A1 preemergence, goosegrass
Procedure, shortened: as §2

[3] = system: Oat, Wild (wild oat, Avena fatua); assay: Test A1 postemergence, Oat, Wild; details: for Plant response rating, Oat, Wild: Postemergence
Procedure, shortened: as §2

rice (Oryza sativa) = assay: Test B1 flooded paddy test, rice; details: 250 g ai/ha, Flood, applied to paddy water, 2-leaf stage, visually evaluated after 10 to 14 days
Excerpt: (§3) A dash (-) response means no test result.

[4] = system: Foxtail, Giant (giant foxtail, Setaria faberi); assay: Test A1 preemergence, Foxtail, Giant
Procedure, shortened: as §2

[5] = system: galium (catchweed bedstraw, Galium aparine); assay: Test A1 postemergence, galium; details: for Plant response rating, Galium: Postemergence
Procedure, shortened: as §1

[6] = system: barnyardgrass (Echinochloa crus-galli); assay: Test B1 flooded paddy test, barnyardgrass; details: 250 g ai/ha, Flood, applied to paddy water, 2-leaf stage, visually evaluated after 10 to 14 days
Excerpt: as §3

[7] = system: blackgrass (Alopecurus myosuroides); assay: Test A1 preemergence, blackgrass
Procedure, shortened: as §2

[8] = 31 g ai/ha, 0 to 100 scale (0 no effect, 100 complete control), 10 days
[9] = 31 g ai/ha, 0 to 100 scale (0 no effect, 100 complete control)
[10] = 125 g ai/ha, 0 to 100 scale, 0 no effect, 100 complete control
[11] = 31 g ai/ha, postemergence, 0 to 100 scale (0 no effect, 100 complete control)

| Structure (SMILES) | Plant response rating, Kochia (kochia (Bassia scoparia); [8]) | Plant response rating, Kochia (kochia (Bassia scoparia); 125 g ai/ha, 0 to 100 scale) | Plant response rating, Pigweed, Palmer [1, 8] | Plant response rating, Pigweed, Palmer ([1]; 125 g ai/ha, 0 to 100 scale) | Plant response rating, Goosegrass [2, 9] | Plant response rating, Goosegrass [2, 10] | Plant response rating, Oat, Wild [3, 8] | Plant response rating, Oat, Wild ([3]; 125 g ai/ha, 0 to 100 scale) | Plant response rating, Rice (0 to 100 scale, 0 is no effect, 100 is complete control) (rice (Oryza sativa)) | Plant response rating, Foxtail, Giant [4, 9] | Plant response rating, Foxtail, Giant [4, 10] | Plant response rating, Galium [5, 8] | Plant response rating, Galium ([5]; 125 g ai/ha, 0 to 100 scale) | Plant response rating, Barnyardgrass (0 to 100 scale, 0 is no effect, 100 is complete control) [6] | Plant response rating, Blackgrass [7, 9] | Plant response rating, Blackgrass [7, 10] | Kochia plant response rating (kochia (Bassia scoparia); [11]) | Pigweed, Palmer plant response rating [1, 11] | Oat, Wild plant response rating [3, 11] | Galium plant response rating [5, 11] |
| --- | --- | --- | --- | --- | --- | --- | --- | --- | --- | --- | --- | --- | --- | --- | --- | --- | --- | --- | --- | --- |
| COCC1CC(c2cc(NS(=O)(=O)C(F)(F)F)c(C)cc2C)=NO1 (stereo not shown) [Compound 319] | 40 | 80 | 0 | 50 | 90 | 90 | 0 | 10 | 30 | 90 | 100 | 40 | 70 | 90 | 30 | 50 | – | – | – | – |
| Cc1c(C(=O)N2CCCCC2)cc(N(COC(=O)C(C)(C)C)S(=O)(=O)C(F)(F)F)c(C)c1C [Compound 329, [[(Trifluoromethyl)sulfonyl][2,3,4-trimethyl-5-(1-piperidinylcarbonyl)phenyl]amino]methyl 2,2-dimethylpropanoate] | 10 | 20 | 10 | 10 | 20 | 100 | 0 | 0 | 20 | 30 | 50 | 50 | 80 | 95 | 0 | 0 | – | – | – | – |
| Cc1cc(C)c(C2=NOC3COCC23)cc1NS(=O)(=O)C(F)(F)F (stereo not shown) [Compound 297] | 0 | 60 | 10 | 20 | 70 | 90 | 20 | 30 | 0 | 80 | 100 | 80 | 90 | 0 | 20 | 40 | – | – | – | – |
| Cc1cc(C)c(C2=NOC3(C)CCCC23)cc1NS(=O)(=O)C(F)(F)F (stereo not shown) [Compound 340] | 20 | 50 | 0 | 30 | 100 | 100 | 0 | 20 | 10 | 50 | 100 | 50 | 80 | 85 | 60 | 90 | – | – | – | – |
| Cc1c(C2=NO[C@@H]3CCC[C@H]23)cc(N(COC(=O)C(C)(C)C)S(=O)(=O)C(F)(F)F)c(C)c1C [Compound 336, [[(Trifluoromethyl)sulfonyl][2,3,4-trimethyl-5-[(3aR,6aR)-3a,5,6,6a-tetrahydro-4H-cyclopent[d]isoxazol-3-yl]phenyl]amino]methyl 2,2-dimethylpropanoate] | 70 | 80 | 20 | 50 | 30 | 70 | 0 | 0 | 45 | 20 | 80 | 60 | 100 | 95 | 0 | 0 | – | – | – | – |
| Cc1c(NS(=O)(=O)C(F)(F)F)cc(C(=O)N2CC(C)OC(C)C2)c(C)c1C (stereo not shown) [Compound 327] | 10 | 30 | 30 | 50 | 50 | 90 | 0 | 0 | 0 | 100 | 100 | 100 | 100 | 30 | 0 | 30 | – | – | – | – |
| C#CCN(C)C(=O)c1cc(NS(=O)(=O)C(F)(F)F)c(C)c(C)c1C [Compound 368] | – | 80 | – | 40 | 70 | 90 | – | 10 | 0 | 90 | 100 | – | 100 | 70 | 10 | 40 | 60 | 20 | 0 | 70 |
